PubChem BioAssay AID2658 (Sanford-Burnham Center for Chemical Genomics, 2010)
Several values for one entry are separate records, joined by “and”; a condition that tells them apart may be missing. Identical values can stand only once. Activity calls are given as the source filed them. How the calls were made is not given here.

Target: Ubiquitin-conjugating enzyme E2 N (Homo sapiens) (UniProt P61088)
Assay: Ubc13/Uev1a ubiquitination inhibitors, SAR follow-up, selectivity assay, biochemical, TR-FRET (AID 2658)
Conditions: Ubc13/Uev1a polyubiquitination, in vitro

Sequence of Ubiquitin-conjugating enzyme E2 N (Homo sapiens) (P61088 whole entry, looked up): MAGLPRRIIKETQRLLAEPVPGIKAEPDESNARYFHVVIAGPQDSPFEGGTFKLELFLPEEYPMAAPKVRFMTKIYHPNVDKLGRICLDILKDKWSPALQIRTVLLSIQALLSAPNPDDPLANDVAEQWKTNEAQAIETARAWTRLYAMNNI

Cc1ccc(C=Nc2ccccc2C(N)=O)s1
IC50: > 100 µM (inactive)

Cc1cccc2c(N=Nc3ccc(S(=O)(=O)Nc4cccc(Cl)c4)cc3[N+](=O)[O-])c(O)[nH]c12
IC50: > 100 µM (inactive)

Cc1c(Cl)cccc1NS(=O)(=O)c1ccc2c(c1)C1C=CCC1C(c1ccc(C(=O)O)cc1)N2 (configuration not stated)
IC50: > 100 µM (inactive)

O=C(O)c1ccc(NS(=O)(=O)c2ccc3c(c2)C2C=CCC2C(c2ccccc2F)N3)cc1 (configuration not stated)
IC50: > 100 µM (inactive)

CCCCn1c(NC(=O)c2ccc(Br)o2)c(S(=O)(=O)c2ccccc2)c2nc3ccccc3nc21
IC50: > 100 µM (inactive)

O=C1c2oc3ccccc3c(=O)c2C(c2ccc(O)cc2)N1c1nccs1 (configuration not stated)
IC50: > 100 µM (inactive)

C=CCn1c(NS(=O)(=O)c2ccccc2)c(S(=O)(=O)c2ccc(C)cc2)c2nc3ccccc3nc21
IC50: > 100 µM (inactive)

Fc1ccc(C2Nc3ccccc3C3C=CCC32)cc1 (configuration not stated)
IC50: > 100 µM (inactive)

COc1ccc(NC(=O)c2cc(-c3ccco3)nc3ccccc23)cc1S(=O)(=O)N1CCOCC1
IC50: 53.4 µM

COc1ccc(-n2c(NC(=O)c3ccc(Br)o3)c(C#N)c3nc4ccccc4nc32)cc1
IC50: > 100 µM (inactive)

Cc1ccc(Nc2cc3ccccc3c(=O)[nH]2)cc1
IC50: > 100 µM (inactive)

O=c1c2ccccc2nc(COc2ccccc2)n1N=Cc1cc([N+](=O)[O-])ccc1O
IC50: > 100 µM (inactive)

Cc1ccccc1CNC(=O)COC(=O)c1cc(-c2ccco2)nc2ccccc12
IC50: 81.1 µM

C/C(=N\OCc1nc2ccccc2c(=O)n1/N=C/c1ccc(Cl)cc1)c1ccccc1
IC50: > 100 µM (inactive)

O=C(N/N=C/c1cccc(F)c1)c1cc(-c2ccco2)nc2ccccc12
IC50: 25.8 µM and 23.3 µM

Cc1ccsc1C=Nc1ccc(F)cc1
IC50: > 100 µM (inactive)

COc1cc(-c2n[nH]c(=S)n2/N=C/c2cccn2C)cc(OC)c1OC
IC50: > 100 µM (inactive)

Cc1cccc(Nc2cc3ccccc3c(=O)[nH]2)c1
IC50: > 100 µM (inactive)

O=C1c2oc3ccccc3c(=O)c2C(c2ccccc2)N1c1nccs1 (configuration not stated)
IC50: > 100 µM (inactive)

COC(=O)c1ccc2c(c1)C1C=CCC1C(c1ccc(C(=O)O)cc1)N2 (configuration not stated)
IC50: > 100 µM (inactive)

COc1ccc(C=NNc2cc(N3CCCC3)nc(N3CCCC3)n2)cc1
IC50: 53.8 µM

O=C(OCC(=O)N1CCc2ccccc2C1)c1cc(-c2ccco2)nc2ccccc12
IC50: > 100 µM (inactive)

O=C(O)c1ccc2c(c1)C1C=CCC1C(c1ccc(F)cc1)N2 (configuration not stated)
IC50: > 100 µM (inactive)

COc1ccc(CNC(=O)COC(=O)c2cc(-c3cccs3)nc3ccccc23)cc1
IC50: 33.1 µM

COc1ccc(CNC(=O)CCOC(=O)c2cc(-c3ccco3)nc3ccccc23)cc1
IC50: > 100 µM (inactive)

Cc1[nH][nH]c(=O)c1C(c1ccc(-c2ccc(F)cc2)o1)c1c(C)[nH][nH]c1=O
IC50: > 100 µM (inactive)

COc1ccccc1CCNC(=O)COC(=O)c1cc(-c2ccco2)nc2ccccc12
IC50: > 100 µM (inactive)

O=C(N=Nc1c(O)n(Cc2ccccc2)c2ccccc12)c1cc2ccccc2cc1O
IC50: > 100 µM (inactive)

CC(NC(=O)COC(=O)c1cc(-c2ccco2)nc2ccccc12)c1ccc(F)cc1 (configuration not stated)
IC50: 72.5 µM

CC(=NOCc1nc2ccccc2c(=O)n1N=Cc1cc([N+](=O)[O-])ccc1O)c1ccccc1
IC50: > 100 µM (inactive)

C=CCn1c(NC(=O)c2ccccc2Cl)c(C#N)c2nc3ccccc3nc21
IC50: > 100 µM (inactive)

O=C(NNc1cc(N2CCCC2)nc(N2CCCC2)n1)c1ccc([N+](=O)[O-])cc1
IC50: > 100 µM (inactive)

S=c1[nH]nc(-c2cc(-c3ccccc3)n[nH]2)n1N=Cc1ccc(Br)s1
IC50: > 100 µM (inactive)

COc1ccccc1NC(=O)COC(=O)c1cc(-c2ccco2)nc2ccccc12
IC50: 16.7 µM and > 100 µM (inactive)

C/C(=N\OCc1nc2ccccc2c(=O)n1/N=C/c1cc(Br)ccc1O)c1ccccc1
IC50: > 100 µM (inactive)

COc1cc(C2c3c(oc4ccccc4c3=O)C(=O)N2c2nccs2)ccc1O (configuration not stated)
IC50: > 100 µM (inactive)

COc1ccc2c(c1)C(NC(C)=O)C(=O)N2CCN1CCOCC1 (configuration not stated)
IC50: 86.1 µM

COc1ccc(CNC(=O)COC(=O)c2cc(-c3ccco3)nc3ccccc23)cc1OC
IC50: > 100 µM (inactive)

O=c1[nH]c(Nc2ccccc2)cc2ccccc12
IC50: > 100 µM (inactive)

COc1ccc(CNC(=O)COC(=O)c2cc(-c3ccco3)nc3ccccc23)cc1
IC50: 34.6 µM

COc1ccc(CCNC(=O)COC(=O)c2cc(-c3ccco3)nc3ccccc23)cc1
IC50: > 100 µM (inactive)

COc1ccccc1CNC(=O)c1cc(-c2ccco2)nc2ccccc12
IC50: > 100 µM (inactive)

Cc1ccsc1C=Nc1ccccc1O
IC50: > 100 µM (inactive)

O=C(COC(=O)c1cc(-c2ccco2)nc2ccccc12)NCc1cccc(Cl)c1
IC50: > 100 µM (inactive)

CC(=O)NC1C(=O)N(CCN2CCOCC2)c2ccc(F)cc21 (configuration not stated)
IC50: > 100 µM (inactive)

CCCCn1c(NS(=O)(=O)c2ccccc2)c(S(=O)(=O)c2ccc(C)cc2)c2nc3ccccc3nc21
IC50: > 100 µM (inactive)

O=C(/C=C/c1cccs1)Nc1scc(-c2ccccc2)c1C(=O)O
IC50: 78.4 µM

O=S(=O)(Nc1ccccc1F)c1ccc2c(c1)C1C=CCC1C(c1ccc(F)cc1)N2 (configuration not stated)
IC50: > 100 µM (inactive)

COC(=O)c1cccc(-c2ccc(C(c3c(C)[nH][nH]c3=O)c3c(C)[nH][nH]c3=O)o2)c1
IC50: > 100 µM (inactive)

Cc1ccc(NC(=O)Cn2c(O)c(N=NC(=O)c3cc4ccccc4cc3O)c3ccccc32)cc1
IC50: > 100 µM (inactive)

O=[N+]([O-])c1ccc2[nH]c(O)c(N=NC(=S)Nc3cccnc3)c2c1
IC50: > 100 µM (inactive)

Cc1ccc(O)c(N=Cc2cccs2)c1
IC50: > 100 µM (inactive)

COc1ccccc1NC(=O)Cn1c(O)c(N=NC(=O)c2ccccc2O)c2ccccc21
IC50: > 100 µM (inactive)

S=c1[nH]nc(-c2cc(-c3ccccc3)n[nH]2)n1N=Cc1cccc(Cl)c1
IC50: > 100 µM (inactive)

C=CCC(Nc1ccccc1)C12C=CC(O1)C(C(=O)OC)=C2C(=O)OC (configuration not stated)
IC50: > 100 µM (inactive)

COc1ccc(CNC(=O)c2cc(-c3ccco3)nc3ccccc23)cc1
IC50: > 100 µM (inactive)

N=C(N)c1ccc2cc(OC(=O)c3ccc(N=C(N)N)cc3)ccc2c1
IC50: 14 µM

Cc1ccc(S(=O)(=O)N(C)C)cc1NC(=O)c1cc(-c2ccco2)nc2ccccc12
IC50: > 100 µM (inactive)

COc1ccccc1CNC(=O)CCOC(=O)c1cc(-c2ccco2)nc2ccccc12
IC50: > 100 µM (inactive)

O=C(O)c1ccc2c(c1)C1C=CCC1C(c1ccccc1)N2 (configuration not stated)
IC50: > 100 µM (inactive)

C/C(=N\OCc1nc2ccccc2c(=O)n1/N=C/c1ccccc1O)c1ccccc1
IC50: > 100 µM (inactive)

S=c1[nH]nc(-c2cc(-c3ccccc3)n[nH]2)n1N=Cc1ccccc1
IC50: > 100 µM (inactive)

COc1ccccc1CNC(=O)CNC(=O)c1cc(-c2ccco2)nc2ccccc12
IC50: > 100 µM (inactive)

CCN(CC)C(=O)COC(=O)c1cc(-c2ccco2)nc2ccccc12
IC50: > 100 µM (inactive)

COC(=O)c1c(-c2ccccc2)csc1NC(=O)/C=C/c1cccs1
IC50: > 100 µM (inactive)

Cc1[nH][nH]c(=O)c1C(c1ccc(-c2cccc(C(=O)O)c2)o1)c1c(C)[nH][nH]c1=O
IC50: > 100 µM (inactive)

O=C(COC(=O)c1cc(-c2ccco2)nc2ccccc12)NCc1ccccc1
IC50: > 100 µM (inactive)
